EC50, IC50 and outcome data for 68 molecules are collected here from PubChem BioAssay AID179 (DTP/NCI, 2004).

This experiment relates to CEM cells HIV-1 protection, formazan growth assay. In words: NCI AIDS Antiviral Assay. Conditions: for IC50: measured here: growth of uninfected CEM cells. A digest of the protocol: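 Human CEM cells, uninfected and HIV-1-infected, exposed to five drug concentrations; growth measured by soluble formazan assay and scored as percent protection from infection, with protecting compounds retested.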

Molecules are shown by their SMILES. Values joined by “and” are separate entries in the source; they are usually repeats but may differ in a detail not shown here. Equal values may be shown once. Active and inactive are the calls of the source.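 The calls were made as follows: active = compounds giving half or more protection of infected cells from virus-caused growth loss, again on retest; inactive = the rest.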 *1 amine or outer side, *2 acyl side, *3 side chain or, on linkers, in order; H or OH if unused. Where a SMILES comes first, the peptide text is derived from it. Bridges are numbered along the chain shown (N, C = ends). Roman numbers before positions name the chains, in order. [ ]: non-standard residue; d: D form. The star is where a group is joined. Actinocin(9to1) = Cc1c2oc3c(C)ccc(C(=O)[*:1])c3nc-2c(C(=O)[*:2])c(N)c1=O; aThr = C[C@H](O)[C@H](N)C(=O)O; NMeV = CN[C@H](C(=O)O)C(C)C; Cbz = O=C(OCc1ccccc1)*; Boc = CC(C)(C)OC(=O)*; Aib = CC(C)(N)C(=O)O; OBn = c1ccc(CO*)cc1; OtBu = CC(C)(C)O*; βAla = NCCC(=O)O; Sar = CNCC(=O)O

Consider `CC1=C(O)C(=O)C=C2C1=CC=C1[C@@]2(C)CC[C@@]2(C)C3C[C@@H](C)C(=O)[C@@H](O)[C@]3(C)CC[C@]12C` (stereo partly drawn), for which the EC50 was > 1.26 µM and the IC50 was 0.2 µM.

As for `CC(C)(C)OC(=O)CC(NC(=O)OC(C)(C)C)C(=O)NC(CCCCNC(=O)OCc1ccccc1)C(=O)NC(C)(C)C(=O)NCCC(=O)OCc1ccccc1` (stereo not drawn) (Boc-D(OtBu)K(Cbz)[Aib][βAla]-OBn; configuration not given here), the EC50 is > 100 µM and the IC50 is > 100 µM.

As for `C=CCNC(=O)NCCCCC(NC(C)=O)C(=O)NCc1ccccc1` (stereo not drawn), the EC50 was > 692 µM and the IC50 is > 692 µM.

Consider `Cc1c(Cl)cccc1NC(=O)/C(Cl)=C(\Cl)C(=O)O`, for which the result was inactive.

Take `O=S(=O)(O)c1cc(O)c2c(N=Nc3ccc(N=Nc4c(S(=O)(=O)O)cc5cc(Nc6ccccc6)ccc5c4O)c4ccccc34)cc(S(=O)(=O)O)cc2c1`: the outcome was inactive.

Regarding `N#C/C(=C(/C#N)c1ccccc1)c1ccccc1`, the EC50 was > 200 µM and the half-maximal inhibitory concentration (IC50) is > 200 µM.

For the molecule `CCN(CC)CCOc1ccccc1/C=C/c1noc2ccccc12`, the EC50 was > 200 µM and the IC50 was determined as 29.5 µM.

Consider `NNC(=O)C(=O)N/N=C(/CCC(=O)NCCc1ccccc1)CC(=O)c1ccccc1`, for which the outcome was inactive.

On to `N#Cc1c(-c2ccccc2)cn2c1[nH]c(=O)c1ccccc12`, for which the EC50 was > 200 µM and the half-maximal inhibitory concentration (IC50) stood at 30.2 µM.

Consider `N#C/C(=C\NC(=S)Nc1cc(Cl)ccc1Cl)c1nc2ccccc2s1`, for which the EC50 is > 100 µM and the IC50 is > 100 µM.

Regarding `CC#CCCC1CCCCN(C(=O)OC(C)(C)C)C1OCC` (stereo not drawn), the EC50 is > 115 µM and the IC50 is 58.9 µM.

As to `CCNc1ccc2c(c1)C(=O)N(OS(C)(=O)=O)C2=O`, the outcome was inactive.

Turning to `O=C(CC(NC(=O)OCc1ccccc1)C(=O)NC1Cc2ccccc2C1=O)OCc1ccccc1` (stereo not drawn), the EC50 is > 200 µM and the IC50 is > 200 µM.

With `Cc1[nH]c2ccccc2c1C(=O)CC1(O)C(=O)Nc2c(Cl)cc(Cl)cc21` (stereo not drawn), the EC50 is > 339 µM and the half-maximal inhibitory concentration (IC50) turned out to be 158 µM.

Regarding `COC(=O)C(CCc1ccccc1I)C1=CCC2(CC1)OCCO2` (stereo not drawn), the EC50 was > 200 µM and the IC50 amounted to 38 µM.

`N#Cc1cccc2c1Sc1ccccc1N2`: the EC50 was > 200 µM and the concentration for half-maximal inhibition (IC50) amounted to 12 µM.

As to `CCOC(=O)C1(C)CCc2sc(N)c(C#N)c21` (stereo not drawn), the concentration giving a half-maximal response (EC50) was 83.2 µM and the 50% inhibitory concentration (IC50) came to 158 µM.

With `COC(=O)C1C=CCON2CCc3c(n(C)c4ccccc34)C12` (stereo not drawn), the EC50 is > 22.9 µM and the IC50 is > 22.9 µM.

Take `Cc1ccc2nc(N/N=C/c3sccc3C)cc(C)c2c1`: the EC50 was > 200 µM and the IC50 turned out to be 49 µM.

With `O=C1C[C@]2(CC(O)CO)CC(O1)[C@@H](I)CC21OCCO1` (stereo partly drawn), the EC50 was > 200 µM and the IC50 is > 200 µM.

On to `COc1cc(O)c2c(=O)c(O)c(-c3ccc(O)c(O)c3)oc2c1`, for which the EC50 is > 93.3 µM and the IC50 came out at 47.9 µM.

Turning to `CCOP(=O)(OCC)/C(=C/c1ccccc1)CC(C)=O`, the EC50 was > 200 µM and the IC50 is 148 µM.

On to `Cc1cccc(N2CC3CC4C=CC3(C2)O4)c1` (stereo not drawn), for which the EC50 is > 200 µM and the 50% inhibitory concentration (IC50) was > 200 µM.

Regarding `COc1ccc(Cc2nc3ccccc3s2)cc1OC`, the EC50 was > 126 µM and the half-inhibitory concentration (IC50) came to 13.8 µM.

For `Cc1nc(N)c(N2CCN(S(=O)(=O)N(Cc3ccccc3)Cc3ccccc3)CC2)c(=O)[nH]1`, the EC50 was > 195 µM and the IC50 is 120 µM.

For `CC12c3ccccc3C(c3ccccc31)C1C(=O)OC(=O)C12` (stereo not drawn), the EC50 is > 135 µM and the IC50 is 21.4 µM.

With `COC(=O)Nc1nc2ccc(SC)cc2c(=O)[nH]1`, the EC50 is > 355 µM and the concentration for half-maximal inhibition (IC50) stood at 12.6 µM.

Turning to `O=C1c2ccccc2C(=O)N1Cc1ccccc1`, the EC50 is > 200 µM and the half-inhibitory concentration (IC50) is > 200 µM.

As to `Cc1c2oc3c(C)ccc(C(=O)N[C@@H]4C(=O)N[C@H](C(C)C)C(=O)N5CCC[C@H]5C(=O)N(C)CC(=O)N(C)[C@@H](C(C)C)C(=O)O[C@H]4C)c3nc-2c(C(=O)N[C@@H]2C(=O)N[C@H](C(C)C)C(=O)N3CCC[C@H]3C(=O)N(C)CC(=O)N(C)[C@@H](C(C)C)C(=O)O[C@H]2C)c(N)c1=O` (I: [aThr][dV]P[Sar][NMeV] / II: [aThr][dV]P[Sar][NMeV]; ester I:1-I:C, II:1-II:C; linker I:N-II:N via Actinocin(9to1)), the EC50 is > 0.302 µM and the IC50 is 9.55e-05 µM.

For the molecule `O=C(O)Cc1ccc(SSc2ccc(CC(=O)O)cc2)cc1`, the EC50 was 46.8 µM and 129 µM; the IC50 is 1120 µM and > 200 µM.

As for `COc1cccc(/C=N/[N-]C(=O)c2ccncc2)c1[O-].[OH3+].[Zn+2]`, the EC50 was > 2.95 µM and the IC50 is > 2.95 µM.

With `S=C(NCc1ccccc1-c1ccccc1)Nc1ccc(Br)cn1`, the EC50 was > 2 µM and the IC50 worked out at 0.38 µM.

For `COc1c(C)cc(Cc2cc(C)c(OC)c(Br)c2)cc1Br`, the EC50 is > 200 µM and the IC50 turned out to be 91.2 µM.

With `CCOP(=O)(OCC)C(C)(CC)NC1=NC(C(F)(F)F)(C(F)(F)F)NC(=O)N1` (stereo not drawn), the EC50 is > 200 µM and the IC50 is > 200 µM.

In the case of `S=c1nc2[nH]c3ccc(Br)cc3c2n[nH]1`, the EC50 is > 200 µM and the concentration for half-maximal inhibition (IC50) is 27.5 µM.

With `O=C1c2ccccc2C(=O)N1CC(O)COc1cccc2ccccc12` (stereo not drawn), the EC50 was > 200 µM and the IC50 is > 200 µM.

As for `Cc1c(CN2CCCC2)c(O)c2c(=O)c3c(O)c(CN4CCCC4)c(O)c4c5c(O)c(CN6CCCC6)c(O)c6c(=O)c7c(O)c(CN8CCCC8)c(C)c8c1c2c(c34)c(c78)c65`, the EC50 is > 17.8 µM and the IC50 was > 17.8 µM.

For `O=C(Nc1cccc(C(F)(F)F)c1)C(Cl)=C(Cl)Cl`, the EC50 was > 200 µM and the IC50 amounted to 2.34 µM.

For the molecule `CC1(O)N2CCCC1(c1ccccc1)CC2` (stereo not drawn), the EC50 was > 1150 µM and the IC50 was 178 µM.

Turning to `CC(C)/C(Cl)=N/OC(=O)Nc1cccc(C(F)(F)F)c1`, the EC50 is > 20 µM and the IC50 stood at 3.02 µM.

As to `O=C1OCCOCCOC(=O)c2cccc(n2)C(=O)OCCOCCOC(=O)c2cccc1n2`, the EC50 was > 525 µM and the half-inhibitory concentration (IC50) was > 525 µM.

As to `Cc1ccc(NCC2(/N=C/c3ccccc3)OC(CO)C(O)C2O)cc1` (stereo not drawn), the EC50 was > 263 µM and the IC50 is 6.61 µM.

Take `O=C1OC2(c3ccc(O)cc3Oc3cc(O)ccc32)c2c1c(-c1ccccc1)c(-c1ccccc1)c(-c1ccccc1)c2-c1ccccc1`: the EC50 amounted to 10 µM and the half-maximal inhibitory concentration (IC50) was 16.6 µM.

For the molecule `O=C(Sc1sc(=S)sc1SC(=O)c1ccccc1)c1ccccc1`, the EC50 was > 17.8 µM and the concentration for half-maximal inhibition (IC50) is > 17.8 µM.

As for `CCc1n[nH]c(=O)n1CCO`, the result was inactive.

Consider `Cn1c(=O)c2c3oc(=O)cc(O)c3c(=O)n3c4ccccc4n(c1=O)c23`, for which the EC50 was > 2.14 µM and the IC50 is > 2.14 µM.

Take `Cc1cccc(-c2nc3sc(-c4cccc(C)n4)nc3s2)n1`: the outcome was inactive.

As for `CCCCC1(OC(=O)CCC(=O)O)CCC2(CCC(C)C(C/C=C(C)/C=C/C(O)C(C)/C=C/C(=O)O)O2)OC1CC/C(C)=C/C(=O)O` (stereo not drawn), the EC50 was > 3.8 µM and the IC50 was found to be 1.29 µM.

Take `CN1Cc2c(ccc3c2OCO3)C2C(O)Cc3cc4c(cc3C21)OCO4` (stereo not drawn): the EC50 was > 0.912 µM and the IC50 turned out to be 0.234 µM.

Consider `CC1(C)COC(c2ccc(C(F)(F)F)cc2C(O)c2ccc3ccccc3c2)=N1` (stereo not drawn), for which the result was inactive.

For `COC(=O)C1=C(C)NC2=C(C(=O)CCC2)C1CCS(C)=O` (stereo not drawn), the EC50 was > 200 µM and the IC50 is > 200 µM.

Turning to `O=C1CCCC2=C(N1)C(=O)C=CC2=O`, the EC50 is > 955 µM and the IC50 was 8.71 µM.

`O=C1c2ccccc2N2OC3C4CCC(C4)C3C12c1ccccc1` (stereo not drawn): the EC50 was > 16.2 µM and the IC50 is 11.5 µM.

Regarding `NC(=O)OCC(COc1ccc(Cl)cc1)OC(=O)c1cc([N+](=O)[O-])cc([N+](=O)[O-])c1` (stereo not drawn), the EC50 was > 562 µM and the IC50 came out at 398 µM.

Regarding `O=C(O)Cc1ccc(Nc2nc3ccccc3nc2C(=O)O)cc1`, the EC50 is > 200 µM and the IC50 was > 200 µM.

Take `C/C(Cl)=N\OC(=O)Nc1ccccc1C(F)(F)F`: the EC50 is > 200 µM and the IC50 was found to be 33.1 µM.

Consider `CCOC(=O)/C(=C/c1ccccc1Br)P(=O)(OCC)OCC`, for which the EC50 is > 91.2 µM and the IC50 is 5.75 µM.

With `O=C(CN1CCCCC1)c1ccc(CCc2ccc(C(=O)CN3CCCCC3)cc2)cc1`, the EC50 is > 200 µM and the IC50 was 95.5 µM.

As for `O=[N+]([O-])c1ccc(Cc2nc3ccccc3s2)cc1`, the EC50 was > 132 µM and the IC50 was found to be 38 µM.

Turning to `CC(=O)NC(CS/N=N/c1nc[nH]c1C(N)=O)C(=O)O` (stereo not drawn), the EC50 was > 200 µM and the IC50 is 0.38 µM.

Regarding `COc1c(-c2cc(C)c(Cl)c(=O)[nH]2)c(O)c(OC)c2occc12`, the EC50 was > 200 µM and the IC50 was 110 µM.

With `COC(=O)C(C(=O)C(=O)Nc1ccc(C)cc1C)c1nc2ccc([N+](=O)[O-])cc2[nH]c1=O` (stereo not drawn), the EC50 was > 575 µM and the IC50 is 129 µM.

Regarding `C/C(O)=C(/C=N/C(N)=S)C(N)=O`, the outcome was inactive.

On to `CC1CN(CCO)CC(C)O1` (stereo not drawn), for which the EC50 was > 1580 µM and the IC50 was > 1580 µM.

As to `CS(=O)(=O)SCc1ccc([N+](=O)[O-])cc1`, the EC50 is > 145 µM and the IC50 amounted to 20.4 µM.

As for `Cc1ccc(N=Nc2c(-c3ccccc3)nn(C(=O)CC(=O)Nc3ccc(Cl)cc3)c2-c2ccccc2)cc1`, the EC50 is > 9.77 µM and the IC50 was > 9.77 µM.

In the case of `CCOC(=O)CCC[P+](c1ccccc1)(c1ccccc1)c1ccccc1`, the EC50 is > 200 µM; the IC50 is 22.4 µM and 7.76 µM.

For `C[N+](C)(C)C1C=CCC2=C1S(=O)(=O)C2` (stereo not drawn), the EC50 was > 741 µM and the IC50 was 355 µM.

In general, EC50 refers to the concentration giving half of the maximal effect. What is called IC50 is the concentration that gives 50% inhibition. Low readings indicate greater potency, high ones weaker potency.
